According to patent US20200368315A1, “ANTIMICROBIAL PEPTIDES AND ADMIXTURES THEREOF SHOWING ANTIMICROBIAL ACTIVITY AGAINST GRAM-NEGATIVE PATHOGENS” (priority 2017, published 2020):
In brackets after ≈: the same amount, converted by molar mass. Several values for one entry are separate records, joined by “and”; a condition that tells them apart may be missing. Equal entries are not always repeated. Where two headings read alike, the source gives them in different places.

What was measured:
E. coli LMG15862 [1] = assay: microbe, parasite or virus in culture; type: cell-based, Escherichia coli; conditions: E. coli LMG15862
Method: (§1) Escherichia coli, Klebsiella pneumoniae, Pseudomonas aeruginosa, Acinetobacter baumannii, Enterobacter aerogenes were grown in Luria-Bertani (LB) broth shaken (200 rpm) or on LB agar at 37° C. […] MICs tests were performed in duplicate by a liquid growth inhibition microdilution assays in sterilized polypropylene microtiter plates according to Wiegand and […] [27]. […] The suspension was diluted in a ratio of 1:100 using Mueller Hinton Broth (MHB) and the final inoculum is 5*10^5 CFU/mL. […] The antimicrobials were diluted serially by 1/2 one by one and 50 uL diluted bacterial suspension were added to each well to make the final volume to be 100 uL. Growth control was accomplished by remove 10 uL from well 11 and dilute 1000 times to plate 1/10 suspension on the solid medium. […] The number of colonies on the control agar plate should be around 50 to ensure the concentration of the inoculum and the effectiveness of the experiment. The lowest concentration of the antimicrobials that inhibits visible growth of the indicator is identified as MIC.

K. pneumoniae LMG20218 [2] = assay: microbe, parasite or virus in culture; type: cell-based, Klebsiella pneumoniae; conditions: K. pneumoniae LMG20218
Method: as §1

P. aeruginosa LMG 6395 [3] = assay: microbe, parasite or virus in culture; type: cell-based, Pseudomonas aeruginosa; conditions: P. aeruginosa LMG 6395
Method: as §1

A. baumannii LMG01041 [4] = assay: microbe, parasite or virus in culture; type: cell-based, Acinetobacter baumannii; conditions: A. baumannii LMG01041
Method: as §1

E. aerogenes LMG 02094 [5] = assay: microbe, parasite or virus in culture; type: cell-based, Enterobacter aerogenes; conditions: E. aerogenes LMG 02094
Method: as §1

E. coli LMG15862 [6] = type: cell-based, Escherichia coli
Source text: (§2) The test of synergistic effect was processed by conducting standard chequerboard broth microdilution assays. Nisin (Drug X) was loaded two fold serially diluted from row 1 to 10 in X-axis while GNPs (Drug Y) were loaded in eight two fold serially diluted concentrations from line A to H in Y-axis (FIG. 1). The original concentrations of peptides were MICs of each. Row 11 are used as growth control with no peptide was included, while row 12 with MHB medium-only wells was included as a sterility control as referred before. 50 uL fresh bacterial suspension was added to well 1-11 and final volume of each well on the plate is 100 uL.
(§3) To determine whether the combination therapy is additive, synergistic or antagonistic, fractional inhibitory concentration (FIC) indices were calculated. FICI=FICa+FICb=MICac/MICa+MICbc/MICb. The MICa/MICb is the MIC of compound A/B alone. MICac is the MIC of compound A in combination with compound B and MICbc is the MIC of compound B when it was combination with compound A. […]. FICa is FIC of compound A while FICb is FIC of compound B. The FICI is interpreted as follows: synergistic, FICI≤0.5; additive, 0.5<FICI<1; indifferent, 1<FICI<2; antagonistic, FICI>2.

K. pneumoniae LMG20218 [7] = type: cell-based, Klebsiella pneumoniae
Source text: as §2, §3

P. aeruginosa LMG 6395 [8] = type: cell-based, Pseudomonas aeruginosa
Source text: as §2, §3

A. baumannii LMG01041 [9] = type: cell-based, Acinetobacter baumannii
Source text: as §2, §3

E. aerogenes LMG 02094 [10] = type: cell-based, Enterobacter aerogenes
Source text: as §2, §3

A. baumannii LMG01041 [11] = tested on: A. baumannii LMG01041
Method: (§4) The test of synergistic effect was processed by conducting standard chequerboard broth microdilution assays. […] Row 11 are used as growth control with no peptide was included, while row 12 with MHB medium-only wells was included as a sterility control as referred before. 50 uL fresh bacterial suspension was added to well 1-11 and final volume of each well on the plate is 100 uL.
(§5) The test of synergistic effect was processed as method 1.4.
as §3

E. aerogenes LMG 02094 [12] = tested on: E. aerogenes LMG 02094
Method: as §4, §5, §3

E. coli LMG15862 [13] = tested on: E. coli LMG15862
Method: as §4, §5, §3

K. pneumoniae LMG20218 [14] = tested on: K. pneumoniae LMG20218
Method: as §4, §5, §3

P. aeruginosa LMG 6395 [15] = tested on: P. aeruginosa LMG 6395
Method: as §4, §5, §3

Gram-negative pathogens = type: cell-based; conditions: L-form GNPs alone; five Gram-negative pathogens
Method: as §1

L. lactis MG1363 = conditions: L. lactis MG1363
[16] = MIC of GNP when used with the MICac concentration of nisin
[17] = MIC of nisin in combination with the GNP at the MICbc concentration
[18] = MIC of GNP in combination with vancomycin at the MICac concentration
[19] = MIC of vancomycin in combination with the GNP at the MICbc concentration

In the case of `CC[C@H](C)[C@H](NC(=O)[C@H](CCCNC(=N)N)NC(=O)[C@H](CCCNC(=N)N)NC(=O)[C@H](Cc1ccccc1)NC(=O)[C@H](CC(C)C)NC(=O)[C@H](CCCNC(=N)N)NC(=O)[C@@H](N)CCCNC(=N)N)C(=O)N[C@@H](CC(C)C)C(=O)N[C@@H](CCCNC(=N)N)C(=O)N[C@@H](Cc1c[nH]c2ccccc12)C(=O)N[C@@H](CC(C)C)C(N)=O` [GNP-6], the “MIC value of antimicrobial compounds alone” value (E. coli LMG15862 [1]) is reported as 2 µM, the “MICb (GNP concentration when used alone)” value (E. coli LMG15862 [1]; L-form GNP, Table 6) is reported as 2 µM and the MIC value (E. coli LMG15862 [1]; alone) is reported as 2 µM (≈ 3.17 µg/mL). The “MIC value of antimicrobial compounds alone” value (K. pneumoniae LMG20218 [2]) was 4 µM, the “MICb (MIC of GNP alone)” value (K. pneumoniae LMG20218 [2]; L-form GNP, Table 7) was 4 µM and the MIC value (K. pneumoniae LMG20218 [2]; alone) was 4 µM (≈ 6.34 µg/mL). For the same molecule, the “MICb (MIC of GNP alone)” value (P. aeruginosa LMG 6395 [3]; L-form GNP, Table 7) was 3 µM, the “MIC value of antimicrobial compounds alone” value (P. aeruginosa LMG 6395 [3]) was 3 µM and the MIC value (P. aeruginosa LMG 6395 [3]; alone) was 3 µM (≈ 4.75 µg/mL). For the same molecule, the “MIC value of antimicrobial compounds alone” value (A. baumannii LMG01041 [4]) was 2 µM, the “MICb (MIC of GNP alone)” value (A. baumannii LMG01041 [4]; L-form GNP, Table 7) was 2 µM and the MIC value (A. baumannii LMG01041 [4]; alone) was 2 µM (≈ 3.17 µg/mL). For the same molecule, the “MIC value of antimicrobial compounds alone” value (E. aerogenes LMG 02094 [5]) was 8 µM, the “MICb (MIC of GNP alone)” value (E. aerogenes LMG 02094 [5]; L-form GNP, Table 7) was 8 µM and the MIC value (E. aerogenes LMG 02094 [5]; alone) was 8 µM (≈ 12.7 µg/mL). For the same molecule, the MICb (E. coli LMG15862 [6]; MIC of GNP alone) was 2 µM, the MICbc (E. coli LMG15862 [6]; [16]) was 0.5 µM and the MICac (E. coli LMG15862 [6]; [17]) was 1.5 µM. The FICI (E. coli LMG15862 [6]; nisin + GNP) was 0.375, the MICb (K. pneumoniae LMG20218 [7]; MIC of GNP alone) was 4 µM and the MICbc (K. pneumoniae LMG20218 [7]; [16]) was 0.5 µM. For the same molecule, the MICac (K. pneumoniae LMG20218 [7]; [17]) was 3 µM, the FICI (K. pneumoniae LMG20218 [7]; nisin + GNP) was 0.188 and the MICb (P. aeruginosa LMG 6395 [8]; MIC of GNP alone) was 3 µM. The MICbc (P. aeruginosa LMG 6395 [8]; [16]) was 0.75 µM, the MICac (P. aeruginosa LMG 6395 [8]; [17]) was 4.5 µM and the FICI (P. aeruginosa LMG 6395 [8]; nisin + GNP) was 0.375. For the same molecule, the MICb (A. baumannii LMG01041 [9]; MIC of GNP alone) was 2 µM, the MICbc (A. baumannii LMG01041 [9]; [16]) was 0.5 µM and the MICac (A. baumannii LMG01041 [9]; [17]) was 0.75 µM. The FICI (A. baumannii LMG01041 [9]; nisin + GNP) was 0.375, the MICb (E. aerogenes LMG 02094 [10]; MIC of GNP alone) was 8 µM and the MICbc (E. aerogenes LMG 02094 [10]; [16]) was 1 µM. For the same molecule, the MICac (E. aerogenes LMG 02094 [10]; [17]) was 1 µM, the FICI (E. aerogenes LMG 02094 [10]; nisin + GNP) was 0.156 and the MICb (A. baumannii LMG01041 [11]; MIC of GNP alone) was 2 µM. The MICbc (A. baumannii LMG01041 [11]; [18]) was 0.5 µM and 1 µM, the MICac (A. baumannii LMG01041 [11]; [19]) was 8 µM and 4 µM and the FICI (A. baumannii LMG01041 [11]; vancomycin + GNP) was 0.5 and 0.625. It also gave an MICb (E. aerogenes LMG 02094 [12]; MIC of GNP alone) of 8 µM, an MICbc (E. aerogenes LMG 02094 [12]; [18]) of 2 µM and an MICac (E. aerogenes LMG 02094 [12]; [19]) of 8 µM. The FICI (E. aerogenes LMG 02094 [12]; vancomycin + GNP) was 0.291, the MICb (E. coli LMG15862 [13]; MIC of GNP alone) was 2 µM and the MICbc (E. coli LMG15862 [13]; [18]) was 0.5 µM. The MICac (E. coli LMG15862 [13]; [19]) was 16 µM, the FICI (E. coli LMG15862 [13]; vancomycin + GNP) was 0.5 and the MICb (K. pneumoniae LMG20218 [14]; MIC of GNP alone) was 4 µM. For the same molecule, the MICbc (K. pneumoniae LMG20218 [14]; [18]) was 0.25 µM, the MICac (K. pneumoniae LMG20218 [14]; [19]) was 32 µM and 16 µM and the FICI (K. pneumoniae LMG20218 [14]; vancomycin + GNP) was 0.313 and 0.25 and 0.5. For the same molecule, the MICb (P. aeruginosa LMG 6395 [15]; MIC of GNP alone) was 3 µM, the MICbc (P. aeruginosa LMG 6395 [15]; [18]) was 1.5 µM and the MICac (P. aeruginosa LMG 6395 [15]; [19]) was 32 µM. The FICI (P. aeruginosa LMG 6395 [15]; vancomycin + GNP) was 0.75, the “Activity ranking amongst all the GNPs” value (Gram-negative pathogens) was “most potent” and the “MIC value of antimicrobial compounds alone” value (L. lactis MG1363) was 1 µM.
